Assay results reported in patent US4000299A, “1-(Imidazol-1-yl)-1-[4-(4-chlorophenyl)phenoxy]-3,3-dimethylbutan-2-one, its salts and a process for their use” (Bayer Aktiengesellschaft, priority 1974, dated 1976).
In brackets after ≈: the same amount, converted by molar mass. Read-outs that look alike come from different tables or passages of the source.

Legend:
Torulopsis glab. = test: series dilution test, MIC; format: cell-based; settings: Table A
Aspergillus spec. = test: series dilution test, MIC; format: cell-based
Trichomonas vaginalis = test: series dilution test, MIC; format: cell-based; settings: Table A
Cryptococcus neof. = test: series dilution test, MIC; format: cell-based; settings: Table A
Coccidioides immitis = test: microbe, parasite or virus in culture; format: cell-based; settings: for MIC: read-out: MIC values; for MIC values: Table A
Microsporon canis = test: series dilution test, MIC; format: cell-based; settings: for MIC: read-out: MIC values
Pityrosporum ovale = test: series dilution test, MIC; format: cell-based; settings: Table A; for MIC: Malassezia furfur
Candida albicans [1] = test: series dilution test, MIC; format: cell-based
Trich. ment. = test: series dilution test, MIC; format: cell-based
Sporothrix Schenckii = test: series dilution test, MIC; format: cell-based; settings: Table A
Staph. aureus = test: series dilution test, MIC; format: cell-based; settings: Table A; for MIC: Staphylococcus aureus
[2] = pharmacokinetics after oral administration; format: in vivo; settings: serum, 50 mg/kg of body weight, mice and guinea pigs, read-out: serum peak concentrations
Description: c. Guideline data on the pharmacokinetics after oral administration. The preparations claimed are resorbed well on oral administration to mice and guinea pigs and after doses of 50 mg/kg of body weight give serum peak concentrations of 4-6 γ/ml for the case of the hydrochloride.

Microsporon felinum = test: series dilution test, MIC; format: cell-based; settings: Table B
Candida albicans [3] = test: experimental candidosis in mice, oral administration; format: in vivo, White mice of the CF1 SPF strain
Description: I. on candidosis in mice.
White mice of the CF1 SPF strain are infected with 1-3 × 10^6 Candida albicans cells intravenously by puncture of the tail vein. Untreated control animals die from the 3rd to the 6th day after infection as a result of the candidosis of the organs which develops. If the preparations claimed are given orally in doses of 2 × 6.25 - 2 × 150 mg/kg of body weight, starting from the day of infection and up to the 5th day after infection, the following survival rates are observed: […]

[4] = 2 × 6.25 mg/kg of body weight, 6.25 mg/kg
[5] = 2 × 12.5 mg/kg of body weight, 12.5 mg/kg
[6] = 2 × 25 mg/kg of body weight, 25 mg/kg

Work on `CC(C)(C)C(=O)C(Oc1ccc(-c2ccc(Cl)cc2)cc1)n1ccnc1` (stereo not drawn) [drawing 4] yielded an MIC (Torulopsis glab.) of 2 µg/mL (≈ 5.42 µM), an MIC (Aspergillus spec.; Table A) of less than 1 µg/mL and an MIC (Trichomonas vaginalis) of 250 µg/mL (≈ 678 µM). For the same molecule, the MIC (Cryptococcus neof.) was 1 to 2 µg/mL (≈ 2.71 to 5.42 µM), the MIC (Coccidioides immitis) was 0.1 µg/mL (≈ 0.271 µM) and the MIC (Microsporon canis; Table A, Microsporon canis) was less than 1 µg/mL. For the same molecule, the MIC (Pityrosporum ovale) was less than 1 µg/mL, the MIC (Candida albicans [1]; Table A) was 2 to 4 µg/mL (≈ 5.42 to 10.8 µM) and the MIC (Trich. ment.; Table A, Trich. ment.) was less than 1 µg/mL. For the same molecule, the MIC values (Sporothrix Schenckii) was 0.1 µg/mL (≈ 0.271 µM) and the MIC (Staph. aureus) was 8 µg/mL (≈ 21.7 µM).

`CC(C)(C)C(=O)C(Cn1ccnc1)Oc1ccccc1-c1ccccc1` (stereo not drawn) gave an MIC (Aspergillus spec.; Table B) of 8 µg/mL (≈ 23 µM), an MIC (Candida albicans [1]; Table B) of 4 µg/mL (≈ 11.5 µM) and an MIC (Trich. ment.; Table B, Trichophyton ment.) of 8 µg/mL (≈ 23 µM).

Work on `CC(C)(C)C(=O)C(Oc1ccc(-c2ccc(Cl)cc2)cc1)n1ccnc1` (stereo not drawn) [drawing 5] yielded an MIC values (Torulopsis glab.) of 2 µg/mL (≈ 5.42 µM), an MIC values (Aspergillus spec.; Table A) of less than 1 µg/mL and an MIC values (Trichomonas vaginalis) of 250 µg/mL (≈ 678 µM). For the same molecule, the MIC values (Cryptococcus neof.) was 1 to 2 µg/mL, the MIC values (Coccidioides immitis) was 0.1 µg/mL (≈ 0.271 µM) and the MIC values (Microsporon canis; Table A, Microsporon canis) was less than 1 µg/mL. For the same molecule, the MIC values (Pityrosporum ovale) was less than 1 µg/mL, the MIC values (Candida albicans [1]; Table A) was 2 µg/mL (≈ 5.42 µM) and the MIC values (Trich. ment.; Table A, Trich. ment.) was less than 1 µg/mL. For the same molecule, the MIC values (Sporothrix Schenckii) was 0.5 µg/mL (≈ 1.36 µM) and the MIC values (Staph. aureus) was 4 µg/mL (≈ 10.8 µM).

Molecule `CC(C)(C)C(=O)C(Cn1ccnc1)Oc1ccc(Cl)cc1` (stereo not drawn) has an MIC (Aspergillus spec.; Table B) of 8 µg/mL (≈ 26.1 µM), an MIC (Candida albicans [1]; Table B) of 4 µg/mL (≈ 13 µM) and an MIC (Trich. ment.; Table B, Trichophyton ment.) of 4 µg/mL (≈ 13 µM).

Work on `CC(C)(C)C(=O)C(Oc1ccc(-c2ccc(Cl)cc2)cc1)n1ccnc1.Cl` (stereo not drawn) [Example 1, 1-(imidazol-1-yl)-1-[4-(4-chlorophenyl)phenoxy]-3,3-dimethyl-butan-2-one hydrochloride] yielded a Cmax [2] of 4000 to 6000 ng/mL.

With `O=C(c1ccccc1)C(Oc1c(Cl)cccc1Cl)n1ccnc1` (stereo not drawn) the MIC (Aspergillus spec.; Table B) was 100 µg/mL (≈ 288 µM), the MIC (Candida albicans [1]; Table B) was 4 µg/mL (≈ 11.5 µM) and the MIC (Microsporon felinum) was 40 µg/mL (≈ 115 µM). The MIC (Trich. ment.; Table B, Trichophyton ment.) was 4 µg/mL (≈ 11.5 µM).

For `O=C(c1ccccc1)C(Oc1ccc(Cl)cc1)(c1ccccc1)n1ccnc1` (stereo not drawn), the MIC (Aspergillus spec.; Table B) was 10 µg/mL (≈ 25.7 µM), the MIC (Candida albicans [1]; Table B) was 10 µg/mL (≈ 25.7 µM) and the MIC (Microsporon felinum) was 40 µg/mL (≈ 103 µM). For the same molecule, the MIC (Trich. ment.; Table B, Trichophyton ment.) was 10 µg/mL (≈ 25.7 µM).

With `OC(O)(c1ccccc1)C(Oc1cccc(Cl)c1)n1ccnc1` (stereo not drawn) the MIC (Aspergillus spec.; Table B) was 40 µg/mL (≈ 121 µM), the MIC (Candida albicans [1]; Table B) was 4 µg/mL (≈ 12.1 µM) and the MIC (Microsporon felinum) was 40 µg/mL (≈ 121 µM). For the same molecule, the MIC (Trich. ment.; Table B, Trichophyton ment.) was 4 µg/mL (≈ 12.1 µM).

With `COC1=CC(=O)C[C@@H](C)[C@]12Oc1c(Cl)c(OC)cc(OC)c1C2=O` [Griseofulvin, griseofulvin] the MIC (Torulopsis glab.) was greater than 100 µg/mL, the MIC (Aspergillus spec.; Table A) was 40 to 100 µg/mL (≈ 113 to 283 µM) and the MIC (Trichomonas vaginalis) was greater than 1000 µg/mL. For the same molecule, the MIC (Cryptococcus neof.) was greater than 100 µg/mL, the MIC (Coccidioides immitis) was greater than 100 µg/mL and the MIC (Microsporon canis) was 5 to 10 µg/mL (≈ 14.2 to 28.3 µM). The MIC (Pityrosporum ovale) was greater than 100 µg/mL, the MIC (Candida albicans [1]; Table A) was greater than 100 µg/mL and the MIC (Trich. ment.; Table A, Trich. ment.) was 5 to 10 µg/mL (≈ 14.2 to 28.3 µM). The MIC (Sporothrix Schenckii; Sporothrix schenckii) was greater than 100 µg/mL and the MIC (Staph. aureus) was greater than 100 µg/mL.

In the case of `CC(C)(C)C(=O)C(Oc1ccc(-c2ccc(Cl)cc2)cc1)n1ccnc1` (stereo not drawn) [drawing 15], the “Survival rates on the 6th day after infection” value (shortened to “Survival rates on the 6th day”) (Candida albicans [3]; [4]) is reported as 95%, the “Survival rates on the 6th day” value (Candida albicans [3]; [5]) is reported as 95% and the “Survival rates on the 6th day” value (Candida albicans [3]; [6]) is reported as 100%. The “Survival rates on the 6th day” value (Candida albicans [3]; 2 × 50 mg/kg of body weight) was 100%, the “Survival rates on the 6th day” value (Candida albicans [3]; 2 × 100 mg/kg of body weight) was 100% and the “Survival rates on the 6th day” value (Candida albicans [3]; 2 × 150 mg/kg of body weight) was 100%.

In the case of `CC(C)(C)C(=O)C(Cn1ccnc1)Oc1ccc(F)cc1` (stereo not drawn), the MIC (Aspergillus spec.; Table B) is reported as 4 µg/mL (≈ 13.8 µM), the MIC (Candida albicans [1]; Table B) is reported as 4 µg/mL (≈ 13.8 µM) and the MIC (Trich. ment.; Table B, Trichophyton ment.) is reported as 8 µg/mL (≈ 27.6 µM).

In the case of `C[C@@H]1[C@H](O)[C@@H](C)/C=C/C=C/CC/C=C/C=C/C=C/C=C/C(O[C@H]2O[C@H](C)[C@@H](O)[C@H](N)[C@@H]2O)CC2O[C@](O)(CC(O)C(O)CCC(O)CC(O)CC(O)CC(=O)O[C@H]1C)CC(O)C2C(=O)O` (stereo partly drawn) [Nystatin, nystatin], the MIC values (Torulopsis glab.) is reported as 5 µg/mL (≈ 5.4 µM), the MIC values (Aspergillus spec.; Table A) is reported as 40 to 100 µg/mL and the MIC values (Trichomonas vaginalis) is reported as > 1,000 γ/ml. For the same molecule, the “Survival rates on the 6th day” value (Candida albicans [3]; 2 × 6.25 mg/kg of body weight) was less than 10%, the “Survival rates on the 6th day” value (Candida albicans [3]; 2 × 12.5 mg/kg of body weight) was less than 10% and the “Survival rates on the 6th day” value (Candida albicans [3]; 2 × 25 mg/kg of body weight) was less than 10%. The “Survival rates on the 6th day” value (Candida albicans [3]; 2 × 50 mg/kg of body weight) was less than 10%, the “Survival rates on the 6th day” value (Candida albicans [3]; 2 × 100 mg/kg of body weight) was 30% and the “Survival rates on the 6th day” value (Candida albicans [3]; 2 × 150 mg/kg of body weight) was 50%. It also gave an MIC values (Cryptococcus neof.) of 4 to 10 µg/mL, an MIC values (Coccidioides immitis) of 40 µg/mL (≈ 43.2 µM) and an MIC values (Microsporon canis; Table A, Microsporon canis) of 20 to 40 µg/mL. For the same molecule, the MIC values (Candida albicans [1]; Table A) was 5 µg/mL (≈ 5.4 µM), the MIC values (Trich. ment.; Table A, Trich. ment.) was 20 µg/mL (≈ 21.6 µM) and the MIC values (Sporothrix Schenckii) was 40 µg/mL (≈ 43.2 µM). For the same molecule, the MIC values (Staph. aureus) was greater than 100 µg/mL.

In the case of `CC(C)(C)C(=O)C(Cn1ccnc1)Oc1ccc(Br)cc1` (stereo not drawn), the MIC (Aspergillus spec.; Table B) is reported as 4 µg/mL (≈ 11.4 µM), the MIC (Candida albicans [1]; Table B) is reported as 4 µg/mL (≈ 11.4 µM) and the MIC (Trich. ment.; Table B, Trichophyton ment.) is reported as 8 µg/mL (≈ 22.8 µM).

`O=C(c1ccccc1)C(Oc1cccc(Cl)c1)n1ccnc1` (stereo not drawn) showed an MIC (Aspergillus spec.; Table B) of 40 µg/mL (≈ 128 µM), an MIC (Candida albicans [1]; Table B) of 10 µg/mL (≈ 32 µM) and an MIC (Microsporon felinum) of 40 µg/mL (≈ 128 µM). It also gave an MIC (Trich. ment.; Table B, Trichophyton ment.) of 4 µg/mL (≈ 12.8 µM).

For `CC(C)(C)C(=O)C(Oc1ccc(-c2ccc(Cl)cc2)cc1)n1ccnc1` (stereo not drawn) [drawing 14], the “Survival rates on the 6th day” value (Candida albicans [3]; [4]) was 55%, the “Survival rates on the 6th day” value (Candida albicans [3]; [5]) was 70% and the “Survival rates on the 6th day” value (Candida albicans [3]; [6]) was 80%. For the same molecule, the “Survival rates on the 6th day” value (Candida albicans [3]; 2 × 50 mg/kg of body weight) was 100%, the “Survival rates on the 6th day” value (Candida albicans [3]; 2 × 100 mg/kg of body weight) was 100% and the “Survival rates on the 6th day” value (Candida albicans [3]; 2 × 150 mg/kg of body weight) was 100%.
